What was measured:
[1] = molecular target: T1, phosphorylated ERBB2 (pERBB2) (Homo sapiens, UniProt P04626); assay: Detection of phosphorylated ERBB2 (pERBB2) by ELISA in BT-474 cells; type: cell-based; conditions: four hours incubation with compound, OD 450 nm
T1 construct: endogenous in cells; host or cells: BT-474
Experimental: BT-474 cells were seeded into a 96-well at 2.0*10^4 cells/100 μl/well.
Compounds were dissolved and serially diluted in DMSO. The compounds were then were added, mixed, and incubated for four hours at 37° C., 5% CO2. Compounds were added using four-fold dilutions at final concentrations ranging from 10 μM to 0.01 nM.
Following the four hour incubation with compounds, cell lysates were prepared. Plates were centrifuged for 5 min at 3000 RPM, and supernatant was removed from each well. Cells were washed 3 times by resuspension in 150 μl PBS, followed by centrifugation and removal of the supernatant, as above. […] Cells were incubated with lysis buffer for 1 hour at 4° C., and then stored at −80° C.
Enzyme-linked immunosorbent assays (ELISA) were performed to measure phosphorylated ERBB2 levels. […] The next day, plates were washed with PBS+0.05% Tween20 (PBST). 150 μl of 5% BSA blocking solution was added for 1 hour at room temperature, with shaking. Plates were washed with PBST. Cell lysates were thawed and 100 μl of lysate was added to the ELISA plate. The plates were incubated for 2 hours at room temperature, with shaking. […] Plates were incubated for 1 hour at room temperature, with shaking. Plates were then washed with PBST, and 100 μl TMB substrate solution (R&D Systems, cat #DY999) was added. Plate were incubated in the dark for 20 minutes at room temperature. 50 μl of Stop solution (R&D Systems, cat #DY994) (50 μl) was added to each well and mixed.
Optical density at 450 nm was read on an EnSpire plate reader (Perkin Elmer). The remaining kinase activity by calculated using the following formula: % Relative activity=100×(A450sample−A450LC)/(A450HC−A450LC). The low and high control values (“LC” and “HC”) were generated from lysate from wells without cells or with cells treated with 0.1% DMSO, respectively.

[2] = molecular target: T2, Ba/F3 ERBB2 A775_G776insYVMA (Homo sapiens, UniProt P04626, DUP772-775, cells depend on it); assay: Cell viability assay (CellTiter Glo); type: cell-based, mouse; conditions: 72 hours; 300 cells per well, 384-well plates (Table B5); read-out: Cell Line: Ba/F3 ERBB2 A775 G776ins YVMA IC50
T2 construct: Ba/F3 cell lines were engineered to express human ERBB2 or EGFR kinases, rendering the cells IL-3 independent
Experimental: Cells were treated with compounds, and cell viability was measured as a metric of kinase inhibition.
The Ba/F3 cell line is IL-3-dependent mouse cell line derived from the C3H mouse strain. Ba/F3 cell lines were engineered to express human ERBB2 or EGFR kinases, rendering the cells IL-3 independent. The lines were generated via retroviral transduction utilizing a Moloney murine leukemia virus (MMLV) promoter, and constructs are stably integrated into the cell genome.
Similarly, Ba/F3 cell lines engineered to express EGFR, ERBB2, or ERBB2 mutants were grown, harvested, counted and seeded at 3000 cells per well in 96-well plates for the data sets shown in Tables B3-B4, and seeded at 300 cells per well in 384-well plates for the data set shown in Table B5. A subset of wells contained media only (low control, “LC”).
Table B2 provides the growth media and number of cells seeded per well for the each cell line.
Compounds were dissolved in DMSO and serially diluted. Serially-diluted compound or a DMSO only control (high control, “HC”) was added to the plated cells in each well. […] The final proportion of DMSO never exceeded 0.1%.
Plates were placed in a 37° C., 5% CO2 incubator for 72 hours. Plates were then removed from the incubator and equilibrated for 15 minutes at room temperature. 40 IA of CellTiter Glo reagent (Promega) was added to measure the relative level of metabolically active cells by quantifying intracellular ATP concentrations. Plates were incubated for 30 minutes at room temperature, and luminescence was measured. Percent viability was normalized to a vehicle control only using the following formula: % viability=100×(LumSample−LumLC) (LumHC−LumLC). Graphical curves were fitted using a nonlinear regression model with a sigmoidal dose response.

[3] = molecular target: T3, phosphorylated EGFR (pEGFR) (Homo sapiens, UniProt P00533); assay: Detection of phosphorylated EGFR (pEGFR) in EGF-stimulated A431 cells (AlphaLISA); type: cell-based; conditions: A431 cells (10% FBS), 4 hours with compound, then EGF 30 ng/mL for 10 minutes
T3 construct: endogenous in cells; host or cells: A431
Experimental: Enzyme-linked immunosorbent assays (ELISA) were performed to measure phosphorylated EGFR levels using A431 cells (10% FBS). A431 (1.0*10^4 cells/40 μl/well) cells were seeded in 384 well. Compounds were dissolved in DMSO, serially diluted in DMSO and then were added, mixed, and incubated for 4 hours at 37° C., 5% CO2. Following the 4-hours incubation, cells were stimulated for 10 minutes with EGF (Invitrogen, cat #PHG0311) at a final concentration of 30 ng/mL in the incubator. The media was aspirated and cells were lysed in 10 μL lysis buffer with protease and phosphatase inhibitors (PerkinElmer, cat #ALSU-PEGFR-A50K). The plates were placed on a shaker for 5 minutes and then incubated for 30 min at 4° C. for complete lysis. The lysate was transferred to an Optiplate (Perkin Elmer, cat #6007290).
Acceptor mix (PerkinElmer, cat #ALSU-PEGFR-A50K) was prepared just before use and 5 μL was dispensed to all the wells, followed by a 1.5-2 h incubation at room temperature in dark. The donor mix (PerkinElmer, cat #ALSU-PEGFR-A50K) was prepared under low light conditions prior to use and […] of donor mix was added to all the wells under subdued lighting or green filters. The plates were placed on a shaker for 5 min, sealed, and incubated overnight at room temperature in dark. Plates were read on the Envision (PerkinElmer) using standard AlphaLISA settings.
The percentage of inhibition on EGFR phosphorylation was calculated following equation: % Inhibition=100×(LumHC−LumSample)/(LumHC−LumLC). The low and high controls (LC/HC) are generated from lysate from wells with cells treated with DMSO or […] Staurosporine (BioAustralis, cat #BIA-S1086), […]. IC50 values were calculated by fitting the Curve using XLfit (v5.3.1.3), equation 201: Y=Bottom+(Top−Bottom)/(1+10^((LogIC50−X)*HillSlope)).

T2 sequence (P04626 with tags, fused parts or gaps DUP772-775): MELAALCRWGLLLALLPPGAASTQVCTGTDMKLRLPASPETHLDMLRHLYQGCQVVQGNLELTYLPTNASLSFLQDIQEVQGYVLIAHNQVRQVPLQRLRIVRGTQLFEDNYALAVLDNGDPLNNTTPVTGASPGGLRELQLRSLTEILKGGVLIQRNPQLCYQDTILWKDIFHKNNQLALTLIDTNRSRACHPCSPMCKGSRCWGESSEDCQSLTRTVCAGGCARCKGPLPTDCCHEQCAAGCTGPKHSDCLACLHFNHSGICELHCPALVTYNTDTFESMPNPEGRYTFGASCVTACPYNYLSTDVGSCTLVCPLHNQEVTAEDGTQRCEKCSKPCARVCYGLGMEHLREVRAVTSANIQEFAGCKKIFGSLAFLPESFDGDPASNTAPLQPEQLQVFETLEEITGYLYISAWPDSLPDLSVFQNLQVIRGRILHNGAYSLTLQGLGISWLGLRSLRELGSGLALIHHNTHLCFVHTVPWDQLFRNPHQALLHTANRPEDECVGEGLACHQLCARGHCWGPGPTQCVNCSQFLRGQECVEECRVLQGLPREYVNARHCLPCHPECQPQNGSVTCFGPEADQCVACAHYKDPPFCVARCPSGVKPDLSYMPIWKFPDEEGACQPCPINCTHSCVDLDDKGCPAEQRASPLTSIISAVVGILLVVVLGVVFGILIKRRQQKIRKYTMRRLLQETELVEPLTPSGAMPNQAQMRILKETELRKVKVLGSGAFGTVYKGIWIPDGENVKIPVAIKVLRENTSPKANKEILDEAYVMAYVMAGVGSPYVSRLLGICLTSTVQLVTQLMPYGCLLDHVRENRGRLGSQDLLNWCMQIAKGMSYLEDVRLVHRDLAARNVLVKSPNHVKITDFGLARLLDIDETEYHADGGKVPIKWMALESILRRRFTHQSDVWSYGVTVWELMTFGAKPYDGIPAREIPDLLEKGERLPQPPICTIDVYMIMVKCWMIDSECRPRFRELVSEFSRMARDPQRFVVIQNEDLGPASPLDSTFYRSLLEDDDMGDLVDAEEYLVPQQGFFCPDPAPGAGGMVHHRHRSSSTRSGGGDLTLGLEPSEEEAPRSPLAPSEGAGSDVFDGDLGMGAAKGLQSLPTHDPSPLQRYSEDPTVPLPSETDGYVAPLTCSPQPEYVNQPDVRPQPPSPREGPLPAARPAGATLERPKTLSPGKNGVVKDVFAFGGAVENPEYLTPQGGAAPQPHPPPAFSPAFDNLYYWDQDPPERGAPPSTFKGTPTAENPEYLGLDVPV
T1 sequence (P04626 23-1255): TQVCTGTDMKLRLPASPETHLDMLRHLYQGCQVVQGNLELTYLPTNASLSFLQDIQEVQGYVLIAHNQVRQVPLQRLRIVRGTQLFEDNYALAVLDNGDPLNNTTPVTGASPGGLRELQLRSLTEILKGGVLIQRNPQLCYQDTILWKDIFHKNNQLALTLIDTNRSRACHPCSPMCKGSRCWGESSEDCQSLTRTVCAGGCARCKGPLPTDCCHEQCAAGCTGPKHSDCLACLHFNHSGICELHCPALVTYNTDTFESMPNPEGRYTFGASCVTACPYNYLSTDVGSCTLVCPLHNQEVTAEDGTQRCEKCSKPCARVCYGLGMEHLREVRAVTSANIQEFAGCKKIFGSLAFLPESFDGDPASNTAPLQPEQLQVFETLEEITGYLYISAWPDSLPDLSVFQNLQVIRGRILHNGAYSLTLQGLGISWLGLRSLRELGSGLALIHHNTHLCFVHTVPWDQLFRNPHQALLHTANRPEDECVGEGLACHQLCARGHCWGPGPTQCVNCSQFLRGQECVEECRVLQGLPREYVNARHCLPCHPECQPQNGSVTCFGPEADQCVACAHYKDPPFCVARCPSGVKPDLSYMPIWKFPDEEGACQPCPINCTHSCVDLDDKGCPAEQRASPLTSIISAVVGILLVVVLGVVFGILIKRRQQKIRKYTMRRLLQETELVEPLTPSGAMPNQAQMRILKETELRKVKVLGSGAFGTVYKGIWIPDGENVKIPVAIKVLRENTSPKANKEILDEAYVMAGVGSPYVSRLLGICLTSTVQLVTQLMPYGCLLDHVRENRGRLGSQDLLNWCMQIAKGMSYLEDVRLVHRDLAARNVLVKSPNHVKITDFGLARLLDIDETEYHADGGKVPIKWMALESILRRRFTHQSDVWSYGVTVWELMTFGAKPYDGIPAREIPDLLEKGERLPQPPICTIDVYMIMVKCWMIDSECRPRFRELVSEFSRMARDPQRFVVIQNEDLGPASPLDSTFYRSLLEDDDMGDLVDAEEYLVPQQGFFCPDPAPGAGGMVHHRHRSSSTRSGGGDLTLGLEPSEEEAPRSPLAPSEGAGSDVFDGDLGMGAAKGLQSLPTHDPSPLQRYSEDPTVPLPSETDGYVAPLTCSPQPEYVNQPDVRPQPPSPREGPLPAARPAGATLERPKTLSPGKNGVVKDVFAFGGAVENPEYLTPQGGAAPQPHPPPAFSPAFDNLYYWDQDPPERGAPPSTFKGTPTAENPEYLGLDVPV
T3 sequence (P00533 25-1210): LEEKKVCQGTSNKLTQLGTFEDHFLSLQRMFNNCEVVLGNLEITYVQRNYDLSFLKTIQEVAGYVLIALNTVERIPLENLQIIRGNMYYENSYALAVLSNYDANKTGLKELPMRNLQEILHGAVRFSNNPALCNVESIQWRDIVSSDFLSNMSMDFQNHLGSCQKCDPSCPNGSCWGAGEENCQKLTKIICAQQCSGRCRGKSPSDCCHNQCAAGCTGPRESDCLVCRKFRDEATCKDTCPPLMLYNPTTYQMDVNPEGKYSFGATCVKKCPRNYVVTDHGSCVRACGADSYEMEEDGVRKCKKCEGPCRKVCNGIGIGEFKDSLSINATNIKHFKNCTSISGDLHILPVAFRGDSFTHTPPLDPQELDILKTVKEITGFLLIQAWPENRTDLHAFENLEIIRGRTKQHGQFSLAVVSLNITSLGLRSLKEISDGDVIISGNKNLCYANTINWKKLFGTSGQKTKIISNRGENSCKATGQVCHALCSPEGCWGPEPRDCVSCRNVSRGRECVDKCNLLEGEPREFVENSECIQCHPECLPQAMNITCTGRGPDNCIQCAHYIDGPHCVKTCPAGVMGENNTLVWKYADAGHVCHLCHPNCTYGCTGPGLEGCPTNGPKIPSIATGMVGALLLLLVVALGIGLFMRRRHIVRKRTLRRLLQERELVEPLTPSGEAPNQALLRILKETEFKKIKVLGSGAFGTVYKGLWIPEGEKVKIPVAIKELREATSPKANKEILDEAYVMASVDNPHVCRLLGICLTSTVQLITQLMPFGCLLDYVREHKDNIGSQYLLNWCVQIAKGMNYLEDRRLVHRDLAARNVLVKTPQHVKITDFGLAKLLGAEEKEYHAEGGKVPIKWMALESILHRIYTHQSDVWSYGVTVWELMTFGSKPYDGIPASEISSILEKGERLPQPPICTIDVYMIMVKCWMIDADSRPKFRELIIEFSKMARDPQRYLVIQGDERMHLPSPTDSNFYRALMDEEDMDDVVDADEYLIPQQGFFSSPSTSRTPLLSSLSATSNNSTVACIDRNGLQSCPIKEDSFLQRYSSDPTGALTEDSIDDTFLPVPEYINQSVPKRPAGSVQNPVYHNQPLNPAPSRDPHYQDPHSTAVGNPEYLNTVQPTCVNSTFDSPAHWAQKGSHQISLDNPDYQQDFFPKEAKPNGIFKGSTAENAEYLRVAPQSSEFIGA

Molecule `CC#CC(=O)Nc1cc2c(Nc3ccc(Oc4ccn5ncnc5c4)c(C4CC4)c3)ncnc2cc1OCCN(C)C` [Compound 195, N-{4-[(3-cyclopropyl-4-{[1,2,4]triazolo[1,5-a]pyridin-7-yloxy}phenyl)amino]-7-[2-(dimethylamino)ethoxy]quinazolin-6-yl}but-2-ynamide] has an IC50 [1] of 104 nM, a GI50 [2] of 86.8 nM and an IC50 [3] of 7070 nM.
With `CNCCOc1cc2ncnc(Nc3ccc(Oc4ccn5ncnc5c4)c(C)c3)c2cc1NC(=O)C#CC1CC1` [Compound 187, 3-cyclopropyl-N-{4-[(3-methyl-4-{[1,2,4]triazolo[1,5-a]pyridin-7-yloxy}phenyl)amino]-7-[2-(methylamino)ethoxy]quinazolin-6-yl}prop-2-ynamide] the IC50 [1] was 30.5 nM, the GI50 [2] was 19.6 nM and the IC50 [3] was 434 nM.
`CC#CC(=O)Nc1c(OCCCN(C)C)cc2ncnc(Nc3ccc(Cc4ccn5ncnc5c4)c(C)c3)c2c1F` [Compound 209, N-{7-[3-(dimethylamino)propoxy]-5-fluoro-4-[(3-methyl-4-{[1,2,4]triazolo[1,5-a]pyridin-7-ylmethyl}phenyl)amino]quinazolin-6-yl}but-2-ynamide] showed an IC50 [1] of 1250 nM, a GI50 [2] of over 500 nM and an IC50 [3] of over 10000 nM.
In the case of `CC#CC(=O)Nc1ccc2ncnc(Nc3ccc(Oc4ccc5c(c4)ncn5C)c(C)c3)c2c1` [Compound 212, N-[4-({3-methyl-4-[(1-methyl-1,3-benzodiazol-5-yl)oxy]phenyl}amino)quinazolin-6-yl]but-2-ynamide], the IC50 [1] is reported as 52.3 nM, the GI50 [2] is reported as 9.41 nM and the IC50 [3] is reported as 377 nM.
Work on `Cc1cc(Nc2ncnc3ccc(NC(=O)C#CC4(C)CC4)cc23)ccc1Oc1ccn2ncnc2c1` [Compound 185, N-{4-[(3-methyl-4-{[1,2,4]triazolo[1,5-a]pyridin-7-yloxy}phenyl)amino]quinazolin-6-yl}-3-(1-methylcyclopropyl)prop-2-ynamide] yielded an IC50 [1] of 17.3 nM, a GI50 [2] of 5.11 nM and an IC50 [3] of 680 nM.
`CC#CC(=O)Nc1cc2c(Nc3ccc(Oc4ccn5ncnc5c4)c(C)c3)ncnc2cc1OCCNC` [Compound 194, N-{4-[(3-methyl-4-{[1,2,4]triazolo[1,5-a]pyridin-7-yloxy}phenyl)amino]-7-[2-(methylamino)ethoxy]quinazolin-6-yl}but-2-ynamide] showed an IC50 [1] of 18.2 nM, a GI50 [2] of 32 nM and an IC50 [3] of 804 nM.
`CC#CC(=O)Nc1cc2c(Nc3ccc(Oc4ccn5ncnc5c4)c(C)c3)ncnc2cc1OCCN1CCCC1` [Compound 192, N-{4-[(3-methyl-4-{[1,2,4]triazolo[1,5-a]pyridin-7-yloxy}phenyl)amino]-7-[2-(pyrrolidin-1-yl)ethoxy]quinazolin-6-yl}but-2-ynamide] showed an IC50 [1] of 9.51 nM, a GI50 [2] of 11 nM and an IC50 [3] of 1350 nM.
`CC#CC(=O)Nc1ccc2ncnc(Nc3ccc(Oc4ccc5nccnc5c4)c(C)c3)c2c1` [Compound 211, N-(4-{[3-methyl-4-(quinoxalin-6-yloxy)phenyl]amino}quinazolin-6-yl)but-2-ynamide] showed an IC50 [1] of 36.6 nM, a GI50 [2] of 3.2 nM and an IC50 [3] of 101 nM.
For `CCOc1cc2ncnc(Nc3ccc(Oc4ccn5ncnc5c4)c(C)c3)c2cc1NC(=O)C#CCN1CCN(C)CC1` [Compound 208, N-{7-ethoxy-4-[(3-methyl-4-{[1,2,4]triazolo[1,5-a]pyridin-7-yloxy}phenyl)amino]quinazolin-6-yl}-4-(4-methylpiperazin-1-yl)but-2-ynamide triformate], the IC50 [1] was 1180 nM, the GI50 [2] was over 500 nM and the IC50 [3] was 2260 nM.
`CC#CC(=O)Nc1cc2c(Nc3ccc(Oc4ccn5ncnc5c4)c(Cl)c3F)ncnc2cc1OCCN(C)C` [Compound 193, N-(4-((4-([1,2,4]triazolo[1,5-a]pyridin-7-yloxy)-3-chloro-2-fluorophenyl)amino)-7-(2-(dimethylamino)ethoxy)quinazolin-6-yl)but-2-ynamide] was tested, and the IC50 [1] was 13.8 nM, the GI50 [2] was 9.32 nM and the IC50 [3] was 658 nM.
In the case of `CC#CC(=O)Nc1cc2c(Nc3ccc(Oc4ccn5ncnc5c4)c(F)c3)ncnc2cc1OCCN(C)C` [Compound 198, N-(4-((4-([1,2,4]triazolo[1,5-a]pyridin-7-yloxy)-3-fluorophenyl)amino)-7-(2-(dimethylamino)ethoxy)quinazolin-6-yl)but-2-ynamide], the IC50 [1] is reported as 6.23 nM, the GI50 [2] is reported as 11.5 nM and the IC50 [3] is reported as 508 nM.
For `CC#CC(=O)Nc1ccc2ncnc(Nc3cc(C)c(Oc4ccn5ncnc5c4)cc3F)c2c1F` [Compound 210, N-{5-fluoro-4-[(2-fluoro-5-methyl-4-{[1,2,4]triazolo[1,5-a]pyridin-7-yloxy}phenyl)amino]quinazolin-6-yl}but-2-ynamide], the IC50 [1] was 12.1 nM, the GI50 [2] was 10.8 nM and the IC50 [3] was 1850 nM.
With `Cc1cc(Nc2ncnc3cc(OCCN(C)C)c(NC(=O)C#CC(C)(C)C)cc23)ccc1Oc1ccn2ncnc2c1` [Compound 191, N-{7-[2-(dimethylamino)ethoxy]-4-[(3-methyl-4-{[1,2,4]triazolo[1,5-a]pyridin-7-yloxy}phenyl)amino]quinazolin-6-yl}-4,4-dimethylpent-2-ynamide] the IC50 [1] was 93.2 nM, the GI50 [2] was 177 nM and the IC50 [3] was over 10000 nM.
`Cc1cc(Nc2ncnc3cc(OCCN(C)C)c(NC(=O)C#CC4(C)CC4)cc23)ccc1Oc1ccn2ncnc2c1` [Compound 190, N-{7-[2-(dimethylamino)ethoxy]-4-[(3-methyl-4-{[1,2,4]triazolo[1,5-a]pyridin-7-yloxy}phenyl)amino]quinazolin-6-yl}-3-(1-methylcyclopropyl)prop-2-ynamide] gave an IC50 [1] of 24.9 nM, a GI50 [2] of 34.5 nM and an IC50 [3] of 1220 nM.

Source: patent US20230265098A1, “ALKYNE QUINAZOLINE DERIVATIVES AS INHIBITORS OF ERBB2” (EnLiven Therapeutics, Inc., priority 2020, published 2023)
